In brackets after ≈: the same amount, converted by molar mass. Where two headings read alike, the source gives them in different places.

What is called Papp A→B is the apparent permeability from the apical to the basolateral side of a cell layer. Lower therefore signals poor permeation. For orientation: microsomal CLint means the rate of metabolic loss divided by the concentration. The low end stands for slow turnover, the high end for rapid turnover. The clearance is a measure of how efficiently the substance is removed, as volume per time. A low value points to a low capacity for elimination. The term solubility (kinetic) denotes the concentration staying in solution when a stock, usually in DMSO, is diluted into the medium. Broadly, the solubility is how much of the substance goes into solution per volume. Read a low solubility as a poorly soluble substance. In general, pKa refers to the negative logarithm of the acid dissociation constant. Low readings indicate a stronger acid or weaker base, high ones a weaker acid or stronger base.

Data set [1] is described as follows: in vitro. The conditions noted are these: human, Caco-2, pH 7.4.
A short description of data set [2]: in vitro. The following applies: human, microsomes.
The nature of another data set: Rat pharmacokinetics. Format: in vivo, Sprague-Dawley rats. The conditions noted are these: male, Sprague-Dawley, plasma, iv, 1 mg/kg.
In another data set the target is Human PKa (Homo sapiens, UniProt P03952). The experiment in a line: biochemical. Format: biochemical.
A further data set is described as follows: Dog pharmacokinetics. The format is in vivo, beagle dogs. The conditions noted are these: male, beagle, plasma, iv, 1 mg/kg.
A further data set in a line: physchem. The conditions noted are these: aqueous buffer, kinetic from dmso stock.
For the next data set, the target named is thrombin (Homo sapiens, UniProt P00734). Put plainly: biochemical. The following applies: IC50 / off target protease selectivity.
The target in the next data set is factor XIa (Homo sapiens, UniProt P03951). Put plainly: biochemical. The conditions noted are these: IC50 / off target protease selectivity, FXIa.
In a further data set the target is T1, factor XIIa (Homo sapiens, UniProt P00748).
T1 sequence (P00748 373-615 limits assumed): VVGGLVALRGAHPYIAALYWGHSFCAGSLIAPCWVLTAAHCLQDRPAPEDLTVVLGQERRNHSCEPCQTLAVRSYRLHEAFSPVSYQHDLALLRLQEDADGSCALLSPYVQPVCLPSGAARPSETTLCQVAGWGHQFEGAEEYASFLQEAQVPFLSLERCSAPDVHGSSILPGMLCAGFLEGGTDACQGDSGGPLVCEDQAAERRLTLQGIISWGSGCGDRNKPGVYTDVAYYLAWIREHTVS
Put plainly: biochemical. The conditions noted are these: IC50 / off target protease selectivity, FXIIa.

Another data set concerns the target tissue kallikrein (KLK1) (Homo sapiens, UniProt P06870). Put plainly: biochemical. The conditions noted are these: IC50 / off target protease selectivity.
The nature of data set [3]: Thermodynamic solubility in FaSSIF / FaSSGF. The conditions noted are these: pH 6.5, solubility FaSSIF, theoretical concentration 1 mg/mL. Format: physicochemical.
The target of a further data set is plasmin (Homo sapiens, UniProt P00747). Put plainly: biochemical. The following applies: IC50 / off target protease selectivity.
The next data set has as its target factor Xa (Homo sapiens, UniProt P00742). The following applies: read-out: IC50 / off target protease selectivity, FXa.
Another data set has as its system trypsin. The following applies: read-out: IC50 / off target protease selectivity, trypsin.
Another data set deals with panel of CYP450 enzymes. Put plainly: CYP450 inhibition panel as a whole. The following applies: up to 25 μM.
The nature of data set [4]: Human plasma protein binding. The format is in vitro ADME. The conditions noted are these: % bound.
For another data set, the target named is tryptase. Put plainly: Protease selectivity, fluorogenic substrate cleavage assay. The format is biochemical, human. The following applies: read-out: IC50 / off target protease selectivity, tryptase.
A further data set concerns bacterial mutagenicity. Put plainly: Non-GLP bacterial mutagenicity Ames test. A general note: The Ames test detects mutagens through reverse mutation in bacteria.
For another data set, the target named is hERG channel (Homo sapiens, UniProt Q12809). The experiment in a line: hERG whole-cell patch clamp. The following applies: highest level tested 33 μM.
Data set [5] in a line: Measured pKa, PION UV-metric method. Format: physicochemical.

Chain of Human PKa (P03952 391-638 limits assumed): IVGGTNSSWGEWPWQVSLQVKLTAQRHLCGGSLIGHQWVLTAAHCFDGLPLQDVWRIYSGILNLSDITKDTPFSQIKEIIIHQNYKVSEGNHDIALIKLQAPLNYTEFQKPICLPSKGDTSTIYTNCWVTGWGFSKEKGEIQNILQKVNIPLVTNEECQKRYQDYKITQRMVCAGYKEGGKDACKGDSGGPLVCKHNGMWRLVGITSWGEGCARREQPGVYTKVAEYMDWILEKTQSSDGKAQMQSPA
Chain of Human PKa (P03952 20-390 partner limits assumed): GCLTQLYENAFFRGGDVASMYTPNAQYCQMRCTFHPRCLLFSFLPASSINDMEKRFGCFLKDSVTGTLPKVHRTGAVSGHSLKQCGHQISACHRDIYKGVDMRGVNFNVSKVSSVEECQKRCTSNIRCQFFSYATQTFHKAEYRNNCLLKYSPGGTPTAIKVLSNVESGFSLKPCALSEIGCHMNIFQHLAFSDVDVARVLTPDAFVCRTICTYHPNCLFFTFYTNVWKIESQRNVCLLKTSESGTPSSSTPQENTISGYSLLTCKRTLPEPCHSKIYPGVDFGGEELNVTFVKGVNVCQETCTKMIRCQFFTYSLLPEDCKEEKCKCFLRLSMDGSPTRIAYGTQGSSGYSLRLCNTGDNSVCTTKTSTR
Chain of plasmin (P00747 581-810 limits assumed): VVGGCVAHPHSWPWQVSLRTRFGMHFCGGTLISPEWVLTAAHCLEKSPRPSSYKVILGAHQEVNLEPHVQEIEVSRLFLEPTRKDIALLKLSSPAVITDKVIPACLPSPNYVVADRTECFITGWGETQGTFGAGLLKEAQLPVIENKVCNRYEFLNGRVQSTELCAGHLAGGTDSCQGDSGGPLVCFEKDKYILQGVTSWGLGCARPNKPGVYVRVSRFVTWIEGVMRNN
Chain of plasmin (P00747 97-580 partner limits assumed): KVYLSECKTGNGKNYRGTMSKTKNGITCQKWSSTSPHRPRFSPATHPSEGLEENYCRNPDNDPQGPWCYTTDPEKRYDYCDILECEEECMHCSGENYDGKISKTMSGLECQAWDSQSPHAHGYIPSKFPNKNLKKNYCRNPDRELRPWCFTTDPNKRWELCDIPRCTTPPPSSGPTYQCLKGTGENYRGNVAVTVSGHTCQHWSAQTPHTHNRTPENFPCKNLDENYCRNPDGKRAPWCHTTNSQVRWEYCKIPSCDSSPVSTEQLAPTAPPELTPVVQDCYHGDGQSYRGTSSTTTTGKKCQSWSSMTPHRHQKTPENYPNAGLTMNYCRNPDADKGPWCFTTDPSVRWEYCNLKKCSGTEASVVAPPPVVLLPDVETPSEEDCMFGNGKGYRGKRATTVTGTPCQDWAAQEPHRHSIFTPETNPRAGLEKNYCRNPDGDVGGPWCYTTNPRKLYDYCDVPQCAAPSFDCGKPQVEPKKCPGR
Chain of tissue kallikrein (KLK1) (P06870 25-262): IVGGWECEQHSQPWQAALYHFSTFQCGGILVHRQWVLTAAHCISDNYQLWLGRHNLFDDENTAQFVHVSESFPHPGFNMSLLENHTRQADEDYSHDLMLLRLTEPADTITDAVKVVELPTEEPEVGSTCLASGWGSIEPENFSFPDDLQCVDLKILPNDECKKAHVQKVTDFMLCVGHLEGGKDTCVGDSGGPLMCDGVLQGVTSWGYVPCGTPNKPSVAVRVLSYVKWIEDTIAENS
Chain of factor XIa (P03951 388-625 limits assumed): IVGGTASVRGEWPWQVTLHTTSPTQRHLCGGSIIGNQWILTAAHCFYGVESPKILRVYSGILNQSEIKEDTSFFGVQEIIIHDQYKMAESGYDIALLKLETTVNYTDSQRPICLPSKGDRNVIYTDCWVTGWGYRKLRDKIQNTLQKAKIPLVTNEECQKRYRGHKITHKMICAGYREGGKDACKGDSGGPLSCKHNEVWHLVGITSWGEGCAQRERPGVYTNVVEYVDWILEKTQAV
Chain of factor XIa (P03951 19-387 partner limits assumed): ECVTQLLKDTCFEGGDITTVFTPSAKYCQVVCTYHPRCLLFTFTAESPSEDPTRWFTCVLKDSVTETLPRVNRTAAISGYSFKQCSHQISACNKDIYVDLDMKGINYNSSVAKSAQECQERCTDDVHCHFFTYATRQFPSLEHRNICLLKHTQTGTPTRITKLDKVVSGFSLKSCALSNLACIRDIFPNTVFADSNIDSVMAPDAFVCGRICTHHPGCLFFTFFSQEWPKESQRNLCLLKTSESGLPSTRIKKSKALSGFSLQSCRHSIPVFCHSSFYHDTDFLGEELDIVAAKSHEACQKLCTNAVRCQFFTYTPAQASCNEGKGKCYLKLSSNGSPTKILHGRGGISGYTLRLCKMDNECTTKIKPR
Chain of hERG channel (Q12809 whole entry): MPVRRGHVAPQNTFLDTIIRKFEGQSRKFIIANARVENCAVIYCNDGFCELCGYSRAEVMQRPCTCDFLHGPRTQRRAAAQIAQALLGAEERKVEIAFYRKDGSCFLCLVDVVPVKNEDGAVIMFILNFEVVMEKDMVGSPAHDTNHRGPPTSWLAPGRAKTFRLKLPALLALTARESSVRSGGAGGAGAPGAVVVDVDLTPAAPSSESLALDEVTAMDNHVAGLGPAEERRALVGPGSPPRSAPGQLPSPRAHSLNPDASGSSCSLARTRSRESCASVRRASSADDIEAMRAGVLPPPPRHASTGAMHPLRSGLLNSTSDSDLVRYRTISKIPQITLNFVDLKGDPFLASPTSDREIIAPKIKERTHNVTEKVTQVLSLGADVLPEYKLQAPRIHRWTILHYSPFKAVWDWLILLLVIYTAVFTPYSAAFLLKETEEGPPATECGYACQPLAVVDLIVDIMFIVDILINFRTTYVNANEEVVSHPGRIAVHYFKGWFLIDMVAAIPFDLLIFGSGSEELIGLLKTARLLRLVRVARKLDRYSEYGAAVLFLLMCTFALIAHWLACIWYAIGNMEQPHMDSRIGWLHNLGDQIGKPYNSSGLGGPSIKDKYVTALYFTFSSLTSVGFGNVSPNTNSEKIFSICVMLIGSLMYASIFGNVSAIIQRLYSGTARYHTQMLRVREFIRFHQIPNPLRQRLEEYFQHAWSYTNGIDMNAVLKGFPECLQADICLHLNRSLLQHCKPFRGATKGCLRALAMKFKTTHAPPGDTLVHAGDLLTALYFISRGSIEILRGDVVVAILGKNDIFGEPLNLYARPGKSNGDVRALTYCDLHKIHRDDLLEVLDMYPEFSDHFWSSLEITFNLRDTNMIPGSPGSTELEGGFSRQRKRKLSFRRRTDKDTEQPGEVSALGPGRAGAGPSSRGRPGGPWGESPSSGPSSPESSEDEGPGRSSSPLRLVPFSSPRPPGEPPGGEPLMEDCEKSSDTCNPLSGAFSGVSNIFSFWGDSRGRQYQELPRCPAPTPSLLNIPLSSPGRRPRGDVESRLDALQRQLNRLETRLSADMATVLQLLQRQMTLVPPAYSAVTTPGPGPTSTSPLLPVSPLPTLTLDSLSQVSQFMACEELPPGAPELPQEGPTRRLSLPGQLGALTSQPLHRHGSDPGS
Chain of factor Xa (P00742 235-488 limits assumed): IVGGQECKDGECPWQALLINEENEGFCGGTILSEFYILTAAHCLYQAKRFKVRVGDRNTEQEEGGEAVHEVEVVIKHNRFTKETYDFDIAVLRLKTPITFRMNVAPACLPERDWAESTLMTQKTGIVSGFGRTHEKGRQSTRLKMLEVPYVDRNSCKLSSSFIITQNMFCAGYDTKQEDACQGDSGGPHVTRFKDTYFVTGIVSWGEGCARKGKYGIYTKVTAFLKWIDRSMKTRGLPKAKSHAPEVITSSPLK
Chain of factor Xa (P00742 41-179 partner limits assumed): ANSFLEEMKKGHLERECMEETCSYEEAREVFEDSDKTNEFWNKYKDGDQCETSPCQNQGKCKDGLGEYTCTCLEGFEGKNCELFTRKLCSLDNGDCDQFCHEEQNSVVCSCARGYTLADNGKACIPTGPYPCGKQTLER

The molecule `Nc1nccc2cc(CNC(=O)c3cnn(Cc4ccc(Cn5ccccc5=O)cc4)c3)ccc12` [Compound 6, Nc1nccc2cc(ccc12)CNC(=O)c1cnn(c1)Cc1ccc(cc1)CN1C=CC=CC1=O] returned a Papp A→B in “in vitro [1]” of 2 ×10⁻⁶ cm/s. The molecule further had a microsomal CLint in “in vitro [2]” of 37 µL/min/mg.
On to `COCc1nn(Cc2ccc(Cn3ccccc3=O)cc2)cc1C(=O)NCc1c(F)ccc(OC)c1F` [Compound 13b, COCc1nn(cc1C(=O)NCc1c(ccc(c1F)OC)F)Cc1ccc(cc1)CN1C=CC=CC1=O], for which the “kinetic sol 0.1 N HCl” value is reported as more than 0.12 mg/mL and the “kinetic sol aq assay buffer (pH 7.4)” value is given as more than 0.12 mg/mL. In the data set “Rat pharmacokinetics”, this molecule came in with a clearance at 24 h of 12.8 mL/min/kg. Further, the “kinetics (in words)” value at Human PKa is on record as “fast kinetics”. This molecule also had an LLE at Human PKa (lipophilic ligand efficiency) of 5.4. The molecule further gave a clearance at 24 h in the data set “Dog pharmacokinetics” of 11.5 mL/min/kg.
In the case of `COCc1nn(Cc2ccc(Cn3ccccc3=O)cc2)cc1C(=O)NCc1cccc(OC)c1F` [Compound 13d, COCc1nn(cc1C(=O)NCc1cccc(c1F)OC)Cc1ccc(cc1)CN1C=CC=CC1=O], the “kinetic sol 0.1 N HCl” value was more than 0.12 mg/mL and the “kinetic sol aq assay buffer (pH 7.4)” value is given as more than 0.12 mg/mL.
Take `COc1cccc(CNC(=O)c2cn(Cc3ccc(Cn4ccccc4=O)cc3)nc2N(C)C)c1F` [Compound 13e, COc1cccc(c1F)CNC(=O)c1cn(nc1N(C)C)Cc1ccc(cc1)CN1C=CC=CC1=O]: the “kinetic sol 0.1 N HCl” value is more than 0.12 mg/mL and the “kinetic sol aq assay buffer (pH 7.4)” value is given as more than 0.12 mg/mL.
Regarding `COc1cccc(CNC(=O)c2cn(Cc3ccc(Cn4ccccc4=O)cc3)nc2C2CC2)c1F` [Compound 13f, COc1cccc(c1F)CNC(=O)c1cn(nc1C1CC1)Cc1ccc(cc1)CN1C=CC=CC1=O], the “kinetic sol 0.1 N HCl” value is listed as more than 0.11 mg/mL and the “kinetic sol aq assay buffer (pH 7.4)” value is reported as 0.058–0.11 mg/mL. Also, on Human PKa (lipophilic ligand efficiency), the LLE was 4.4.
As to `COCc1nn(Cc2ccc(Cn3ccccc3=O)cc2)cc1C(=O)NCc1cccc(O)c1F` [Compound 13g, COCc1nn(cc1C(=O)NCc1cccc(c1F)O)Cc1ccc(cc1)CN1C=CC=CC1=O], the “kinetic sol 0.1 N HCl” value is listed as more than 0.12 mg/mL and the “kinetic sol aq assay buffer (pH 7.4)” value is more than 0.12 mg/mL.
With `CCc1cccc(CNC(=O)c2cn(Cc3ccc(Cn4ccccc4=O)cc3)nc2COC)c1F` [Compound 13h, CCc1cccc(c1F)CNC(=O)c1cn(nc1COC)Cc1ccc(cc1)CN1C=CC=CC1=O], the “kinetic sol aq assay buffer (pH 7.4)” value is reported as more than 0.12 mg/mL. Further, the LLE at Human PKa is on record as 3.7. In the data set “physchem”, this molecule showed a solubility (kinetic) of 29 to 59 µg/mL (≈ 59.4 to 121 µM).
Regarding `COCc1nn(Cc2ccc(Cn3ccccc3=O)cc2)cc1C(=O)NCc1cccc(OC(F)F)c1F` [Compound 13i, COCc1nn(cc1C(=O)NCc1cccc(c1F)OC(F)F)Cc1ccc(cc1)CN1C=CC=CC1=O], the “kinetic sol aq assay buffer (pH 7.4)” value is recorded as more than 0.12 mg/mL. This molecule also returned an IC50 on Human PKa of 0.15 µM. This molecule came in with an LLE on Human PKa (lipophilic ligand efficiency) of 4.2. This molecule also gave a kinetic solubility in the data set “physchem” of 63 to 120 µg/mL (≈ 120 to 228 µM).
As to `COCc1nn(Cc2ccc(Cn3ccccc3=O)cc2)cc1C(=O)NCc1c(Cl)ccc(OC)c1F` [Compound 13j, COCc1nn(cc1C(=O)NCc1c(ccc(c1F)OC)Cl)Cc1ccc(cc1)CN1C=CC=CC1=O], the “kinetic sol 0.1 N HCl” value is more than 0.12 mg/mL and the “kinetic sol aq assay buffer (pH 7.4)” value is recorded as more than 0.12 mg/mL.
For the molecule `COCc1nn(Cc2ccc(Cn3ccccc3=O)cc2)cc1C(=O)NCc1c(C#N)ccc(OC)c1F` [Compound 13k, COCc1nn(cc1C(=O)NCc1c(c(ccc1C#N)OC)F)Cc1ccc(cc1)CN1C=CC=CC1=O], the “kinetic sol 0.1 N HCl” value is listed as more than 0.12 mg/mL and the “kinetic sol aq assay buffer (pH 7.4)” value was more than 0.12 mg/mL. The molecule also returned a clearance at 24 h in “Rat pharmacokinetics” of 16 mL/min/kg.
Regarding `COCc1nn(Cc2ccc(Cn3ccccc3=O)cc2)cc1C(=O)NCc1cc(OC)ccc1F` [Compound 13l, COCc1nn(cc1C(=O)NCc1cc(ccc1F)OC)Cc1ccc(cc1)CN1C=CC=CC1=O], the “kinetic sol 0.1 N HCl” value was more than 0.12 mg/mL and the “kinetic sol aq assay buffer (pH 7.4)” value was more than 0.12 mg/mL.
As for `COCc1nn(Cc2ccc(Cn3ccccc3=O)cc2)cc1C(=O)NCc1nccc(OC)c1C` [Compound 14s, COCc1nn(cc1C(=O)NCc1nccc(c1C)OC)Cc1ccc(cc1)CN1C=CC=CC1=O], the IC50 was 7.5 µM against thrombin; more than 10 µM on factor XIa; more than 10 µM against factor XIIa; more than 10 µM against tissue kallikrein (KLK1); more than 10 µM at plasmin. In “Rat pharmacokinetics”, the clearance at 24 h came to 14 mL/min/kg. This molecule also registered a solubility at 4 h in data set [3] of more than 100 µg/mL.
Regarding `COCc1nn(Cc2ccc(Cn3ccccc3=O)cc2)cc1C(=O)NCc1nccc(OC)c1F` [Compound 14w, 3-Methoxymethyl-1-[4-(2-oxo-2H-pyridin-1-ylmethyl)-benzyl]-1H-pyrazole-4-carboxylic Acid (3-Fluoro-4-methoxy-pyridin-2-ylmethyl)-amide], the IC50 at factor Xa is more than 10 µM; in the data set on trypsin, more than 10 µM; in the data set on trypsin (listed as Sebetralstat), more than 40 µM; at tryptase, more than 10 µM. In addition, the “CYP450 panel profile (in words)” value in the data set on panel of CYP450 enzymes is reported as “clean profiles up to the highest concentration tested”. In addition, the clearance at 24 h in “Rat pharmacokinetics” turned out to be 11.7 mL/min/kg; in “Dog pharmacokinetics”, 8.7 mL/min/kg. The “human plasma protein binding (PPB)” value in data set [4] amounted to 77%. Besides, the “kinetics (in words)” value at Human PKa is “fast kinetics”. The “Non-GLP Ames” value with bacterial mutagenicity is given as “no risk of genotoxicity”. The “inhibition of hERG channel (in words)” value at hERG channel is listed as “no significant inhibition”. The pKa in data set [5] was 3.6.
For `COc1ccnc(CNC(=O)c2cn(Cc3ccc(Cn4ccccc4=O)cc3)nc2C(F)(F)F)c1F` [Compound 16, COc1ccnc(c1F)CNC(=O)c1cn(nc1C(F)(F)F)Cc1ccc(cc1)CN1C=CC=CC1=O], the IC50 against thrombin, with trypsin, at factor XIa, at factor XIIa, at tissue kallikrein (KLK1) and against plasmin was more than 10 µM each time. For the same molecule, the “CYP450 panel profile (in words)” value with panel of CYP450 enzymes is recorded as “clean profiles up to the highest concentration tested”. Moreover, the values for the clearance at 24 h in “Rat pharmacokinetics” and in “Dog pharmacokinetics” were 7.1 mL/min/kg and 10 mL/min/kg, respectively. For the same molecule, in [4], the “human plasma protein binding (PPB)” value is on record as 87%. The “kinetics (in words)” value at Human PKa was “fast kinetics”.

For the origin of these results see paper PMC9620001 (Journal of Medicinal Chemistry, 2022).
